From US7915405B2, “2,4-disubstituted-5-aminocarbonyl-1,3-thiazole derivatives for therapeutic agent of antiinflammatory disease, method thereof for preparation, therapeutic agent for antiinflammatory disease induced by SPC activity containing the same” (Korea Research Institute of Chemical Technology, priority 2008, dated 2011) come the findings set out here.

The subject of one experiment is NIH 3T3 cells. In words: Control of cellular division and proliferation induced by SPC ([3H]-thimidine incorporation). The class given is cell-based. As for the experimental part:
Treatment of cells with sphingosylphosphorylcholine (SPC) can induce excessive cellular division and proliferation, thus causing pathological skin conditions [Desai, Biochem. Biophys. […] Accordingly, the compounds prepared in the above Examples were tested for an effect on cellular division and proliferation induced by SPC.
First, 1×10^5 (usually 1×10^4˜10^5) NIH 3T3 cells (American Type Culture Collection, Manassas, Va., USA) were dispensed and cultured on a culture plate, and then cultured in RPMI medium containing no fetal bovine serum for 24 hours to achieve serum starvation. The cells were treated with the compounds prepared in the above Examples, and FTY720, a sphingosine-1-phosphate (S1P) agonist, at concentrations of 0.001 μM, 0.01 μM, 0.1 μM and 1 μM, and were incubated for 30 minutes. Then, SPC (Biomol, Plymouth Meeting, Pa., USA) was added thereto at a concentration of 7 μM, and the cells were incubated at 37° C. for 24 hours. […] Proliferation %=(group treated with test drug−group not treated with SPC)/(group treated with SPC alone−group not treated with SPC)×100 [Equation 1]

For experiment [1], the system named is TPA-induced inflammation model. In words: Control of inflammatory reaction in mouse TPA-induced inflammation model (ear weight and MPO activity). Conditions: ICR mice. The class given is in vivo. The protocol: In order to examine an inhibitory effect on inflammatory reactions, the following test was carried out using tetradecanoyl phorbol acetate (hereinafter referred to as “TPA”)-induced inflammation model.
The TPA-induced inflammation model was a test method which has been widely used to test inflammatory reaction mechanisms and the effect of inhibitory substances [De Young L M et al., Agents and Actions, 1989, 26, 335-341]. When TPA which is a substance causing an inflammatory reaction is applied to the ear of a test subject, erythema and edema occur. Such inflammatory reactions are measurable through the increase in the activity of myeloperoxidase (MPO) which is essential for bacterial invasion into white blood cells.
Forty 6-week-old ICR mice were prepared, and 20 μl of a TPA solution (Sigma Aldrich Korea) obtained by dissolving TPA in acetone at a concentration of 125 μg/ml was applied to the left ear of each animal. At 1 hour after the application of TPA, 20 μl of each of acetone, the compounds of Examples dissolved in acetone at a concentration of 0.3%, and hydrocortisone (Sigma Aldrich Korea) dissolved in acetone at a concentration of 0.3% was applied to the TPA-applied site, and at 6 hours after the application of TPA, it was applied again to the same site in the same amount (20 μl). At 24 hours after the application of TPA, the mice were sacrificed by cervical dislocation, and the left ear was collected in a given width and measured for weight and MPO activity. Inhibition % of inflammatory reactions was calculated according to the following equation 3, and the results are shown in Table 4 below. Inhibition %=(group treated with TPA alone−group treated with test drug)/(group treated with TPA alone−group not treated with TPA)×100 [Equation 3]

Experiment [2] concerns human umbilical vein endothelial cells (HUVECs). In words: Inhibitory effect on chemotactic cell migration induced by SPC (Boyden chamber analysis). It is filed as cell-based. As to conditions: HUVEC. The source says: Recently, it was reported that SPC plays an important role in chemotactic cell migration, similar to vascular endothelial cell growth (VEGF) [Boguslawski et al, Biochem Biophys Res Commun., 2000, 272, 603-609]. The phenomenon in which cells migrate in a living body by special cytokines or kemokines is a key step in a process, such as migration of immune cells to sites of inflammation, or angiogenesis caused by endothelial cells. Accordingly, the effect of the compounds prepared in the above Examples on chemotactic cell migration induced by SPC was tested by Boyden chamber analysis.
First, a 25×80 mm polycarbonate membrane (Neuro Probe, Inc.) having 8 μm pores was overnight coated by immersion in a solution containing 0.01% gelatin and 0.1% acetic acid solution and was naturally dried at room temperature.
Meanwhile, human umbilical vein endothelial cells (HUVECs) cultured in complete EBM-2 medium containing 2% fetal bovine serum were incubated in EBM-2 medium (Cambrex, Catalog No. CC-3121) containing no fetal bovine serum for 4 hours to achieve serum starvation, and then the cells were harvested with trypsin/EDTA solution. The HUVEC cells were suspended in EBM-2 medium containing 0.1% fetal bovine serum. Then, the cells were dispensed in a silicon-coated Eppendorf tube, the compound of Example 1-31 as a test drug was added to the cells in amounts of 0.1, 1 and 10 μg/ml, and the cells were treated with the compound at 37° C. for 30 minutes. 27 μL of EBM-2 medium containing 10 μM SPC or EBM-2 medium containing no SPC was dispensed in each well of the lower chamber of the Boyden chamber, and a gelatin-coated membrane was placed in the lower chamber, such that the glossy surface of the membrane was faced downward. A gasket was placed on the membrane, and then the upper chamber was assembled. 5×10^4 (56 μl) HUVEC cells treated with the drug were dispensed in each well of the upper chamber and incubated in a CO2 incubator at 37° C. for 8 hours. The membrane was separated, stained with Diff-Quik dye (Sysmex Corporation), washed with deionized water, and then attached to a slide glass, such that the glossy surface was faced downward. The cells attached onto the membrane were carefully wiped with kimwipes or cotton swabs, and then each well was photographed in five fields (200× magnification), and the cells were counted. Inhibition of chemotactic cell migration was calculated according to the following equation 2, and the results are shown in Table 3 below. Inhibition %=(group treated with SPC alone−group treated with test drug)/(group treated with SPC alone−group not treated with SPC)×100 [Equation 2]

Take `COc1ccccc1N1CCN(c2nc(NC(=O)C(C)(C)C)c(C(=O)N3CCCCC3)s2)CC1` [Example 1-31, N-{2-[4-(2-methoxyphenyl)-piperazin-1-yl]-5-(piperidine-1-carbonyl)thiazol-4-yl}pivalamide]: the IC50 in the experiment with NIH 3T3 cells (Mus musculus, NIH3T3, serum starved, compound 0.001-1 μM 30 minutes, then SPC 7 μM, 24 hours, read-out: antagonistic effect on SPC IC50) was 5.42 nM. For the same compound, the “inhibition of cellular division and proliferation induced by SPC (in words)” value with NIH 3T3 cells (SPC 7 μM) is recorded as “dose-dependently inhibited”. In addition, the “Inhibition (%) of inflammatory reaction (ear edema, ear weight)” value in experiment [1] (0.3% in acetone, 20 μl on the ear at 1 hour and 6 hours after TPA, measured at 24 hours) is recorded as 84%. In addition, in experiment [1] (0.3% topical, compared with hydrocortisone), the “inhibition of TPA-induced inflammatory reactions, ear edema and MPO activity (in words)” value is recorded as “significantly inhibited”. For the same compound, the “Inhibition (%) (MPO inhibition)” value in experiment [1] (value in brackets, 0.3% in acetone, 20 μl on the ear at 1 hour and 6 hours after TPA, MPO activity of ear at 24 hours) amounted to 78%. The “inhibition of chemotactic cell migration caused by SPC (in words)” value in experiment [2] (Boyden chamber) was “strongly inhibited”. The compound also registered an inhibition at 0.1 µg/mL in experiment [2] (Homo sapiens, 0.1 μg/ml, 10 μM SPC, 8 hours) of 44%. In experiment [2] (Homo sapiens, 1 μg/ml, 10 μM SPC, 8 hours), this compound showed an inhibition at 1 µg/mL of 58%. For the same compound, testing at 10 µg/mL in experiment [2] (Homo sapiens, 10 μg/ml, 10 μM SPC, 8 hours) gave an inhibition of 69%.
